Source: patent US6740662B1, “Naphthyridine derivatives” (Yamanouchi Pharmaceutical Co., Ltd., priority 1999, dated 2004)

What was measured:
[1] = system: P450 drug metabolizing enzyme present in the liver microsome; experiment: In vitro drug metabolism test using liver microsome; assay type: in vitro ADME; details: human and rat liver microsome, test compound 20 ng/ml, 37° C., 10, 20 and 30 minutes, residual ratio
Protocol: 1) Human and rat liver microsome suspension (human microsome: Xenotech, rat microsome: Charles River) was diluted with 100 mM Na-K phosphate buffer (pH 7.4) to a protein concentration of 0.5 mg/ml. To a 100 μl portion of this suspension were added 2 μl of a test compound solution (a 10 μg/ml acetonitrile solution), 500 μl of 200 mM Na-K phosphate buffer (pH 7.4), 50 μl of 1 mM EDTA-NaOH (pH 7.4) and 200 μl of purified water, thereby preparing a substrate solution (concentration in the reaction solution: liver microsome (as the protein content) 0.05 mg/ml, test compound 20 ng/ml, 100 mM Na-K phosphate buffer, 0.1 mM EDTA-NaOH).
2) An NADPH production system was prepared by mixing 42 mg of NADP, 5 ml of 100 mM […] (G6P) and 5 ml of 100 mM MgCl2, and adding 57 μl of G6P dehydrogenase (about 1750 U/5 mg/ml) to the mixture. This was heated at 37° C. for 5 minutes and then ice-cooled until its use.
3) A 900 μl portion of the substrate solution was pre-incubated at 37° C. for 5 minutes, and then 100 μl of the NADPH production system was added thereto, following by reaction at 37° C. for 10, 20 and 30 minutes. After termination of the reaction by adding 2 ml of ethyl acetate, the whole was ice-cooled. In this connection, a control sample was prepared by adding 100 μl of the NADPH production system after adding 2 ml of ethyl acetate (0 minute reaction).
4) To the reaction solution was added 100 μl of an internal standard substance having a predetermined concentration (an acetonitrile solution), 1 ml of 0.5 M phosphoric acid and 2 ml of ethyl acetate, followed by shaking for 10 minutes. After 10 minutes of centrifugation at 2,500 rpm, the ethyl acetate layer was separated and evaporated to dryness, and the residue was dissolved in 100 μl of an HPLC mobile phase solvent. The test compound was eluted after about 12 minutes, and the internal standard substance after about 16 minutes, under the following conditions. (HPLC measuring conditions mobile phase: acetonitrile/20 mM ammonium acetate=2:3 (v/v), column: Discovery RP Amide C16, 4.6×35 mm (SUPELCO), flow rate: 0.8 ml/min., detection: UV 286 nm)
5) A ratio (residual ratio) of the peak height ratio after 10, 20 or 30 minutes of the reaction to the peak height ratio of each test compound in the control (peak height ratio to the internal standard substance) was calculated.

[2] = Oral absorbability and pharmacokinetic profile evaluation test using type IV PDE inhibitory activity as the index; assay type: in vivo; details: orally administered to male Fisher rat at 3 mg/kg; plasma type IV PDE inhibitory activity as index; in comparison with a comparative compound
Protocol: Test Example 3. Oral absorbability and pharmacokinetic profile evaluation test using type IV PDE inhibitory activity as the index
The following assay was carried out in order to evaluate oral absorbability and pharmacokinetic profiles of the type IV PDE-inhibiting compounds of the invention.
1) Each test compound suspended in purified water containing 0.5% methyl cellulose was orally administered to a seven-week-old male Fisher rat at a dose of 3 mg/kg. In the control group, a solvent (0.5% methyl cellulose in purified water, 3 ml/kg) was administered in the same manner. After the oral administration, blood samples were periodically collected in the presence of heparin from the caudal vein of each rat under ether anesthesia, and plasma was prepared in the usual way.
2) The plasma prepared from each rat administered with the test compound or solvent was added to the type IV PDE measuring system shown in the above Test Example 1 so as to be a final concentration of 0.1%, and the type IV PDE inhibitory activity was measured.

metabolism by the P450 drug metabolizing enzyme present in the liver microsome [1] | melting point [°C] | Structure (SMILES) | oral absorbability and metabolic stability [2]
hardly metabolized | – | CCn1c(=O)c(CCC(=O)O)c(-c2cccc(Cl)c2)c2ccc(C)nc21 [Example 2, 3-[4-(3-chlorophenyl)-1-ethyl-7-methyl-2-oxo-1,2-dihydro-1,8-naphthyridin-3-yl]propanoic acid] | good oral absorbability and metabolic stability
hardly metabolized | 254 to 256 | CCn1c(=O)c(-c2cccc(C(=O)O)c2)c(-c2cccc(Cl)c2)c2ccc(C)nc21 [Example 21, 3-[4-(3-chlorophenyl)-1-ethyl-7-methyl-2-oxo-1,2-dihydro-1,8-naphthyridin-3-yl]benzoic acid] | good oral absorbability and metabolic stability
hardly metabolized | – | CCn1c(=O)c(C2CCNCC2)c(-c2cccc(Cl)c2)c2ccc(C)nc21 [Example 28, 4-(3-chlorophenyl)-1-ethyl-7-methyl-3-(piperidin-4-yl)-1,8-naphthyridin-2(1H)-one monofumarate] | good oral absorbability and metabolic stability
hardly metabolized | 197 to 199 | CCn1c(=O)c(CCC(=O)O)c(-c2cccc(Cl)c2)c2ccc(Cl)nc21 [Example 41, 3-[7-chloro-4-(3-chlorophenyl)-1-ethyl-2-oxo-1,2-dihydro-1,8-naphthyridin-3-yl]propanoic acid] | good oral absorbability and metabolic stability
hardly metabolized | 234 to 238 | CCn1c(=O)c(CCC(=O)O)c(-c2cccc(Cl)c2)c2ccc(C=NO)nc21 [Example 43, 3-[4-(3-chlorophenyl)-1-ethyl-7-hydroxyiminomethyl-2-oxo-1,2-dihydro-1,8-naphthyridin-3-yl]propanoic acid] | good oral absorbability and metabolic stability
hardly metabolized | 155 to 156 | CCn1c(=O)c(CCC(=O)O)c(C2CCCCC2)c2ccc(C)nc21 [Example 47, 3-(4-cyclohexyl-1-ethyl-7-methyl-2-oxo-1,2-dihydro-1,8-naphthyridin-3-yl)propanoic acid] | good oral absorbability and metabolic stability
hardly metabolized | 174 to 175 | CCn1c(=O)c(CCC(=O)O)c(-c2cccc(C)c2)c2ccc(C)nc21 [Example 77, 3-[1-ethyl-7-methyl-4-(3-methylphenyl)-2-oxo-1,2-dihydro-1,8-naphthyridin-3-yl]propanoic acid] | good oral absorbability and metabolic stability
hardly metabolized | 207 to 209 | CCn1c(=O)c(CCc2nnn[nH]2)c(C2CCCCC2)c2ccc(C)nc21 [Example 79] | good oral absorbability and metabolic stability
